Assay results: patent US20260356851A1, “TRICYCLIC COMPOUNDS AND USES THEREOF” (HUTCHMED LIMITED, priority 2023, published 2026)
pIC50: −log10 of the molar value.

Experiments:
Assay type in all cases: cell-based
[1] = molecular target: T1, pERK1/2 (Thr202/Tyr204), NCI-1H441 (KRAS G12V) (Homo sapiens, UniProt P01116, G12V); test: Assay of intracellular pERK1/2 (Thr202/Tyr204) phosphorylation in NCI-H441 cells (KRAS G12V); details: pERK1/2, 2 days, read-out: NCI-H441 (KRAS G12V) IC50
T1 construct: pERK1/2 HTRF read-out
T1 sequence (P01116 1-188 isoform P01116-2 G12V): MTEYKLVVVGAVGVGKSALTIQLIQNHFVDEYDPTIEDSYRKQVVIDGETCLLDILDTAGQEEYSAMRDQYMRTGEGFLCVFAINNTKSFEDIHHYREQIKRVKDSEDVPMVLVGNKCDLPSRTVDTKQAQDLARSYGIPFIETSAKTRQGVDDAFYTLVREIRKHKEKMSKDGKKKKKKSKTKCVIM
Summary of the method: (§1)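 Cells (10000-12000/well) exposed to 3-fold compound dilutions for 2 days at 37 °C, then lysed; pERK1/2 (Thr202/Tyr204) measured by HTRF with d2 and cryptate antibodies, 665/615 nm ratio.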

[2] = molecular target: T2, pERK1/2 (Thr202/Tyr204), PANC-1 (KRAS G121D) (Homo sapiens, UniProt P01116, G12D); test: Assay of intracellular pERK1/2 (Thr202/Tyr204) phosphorylation in PANC-1 cells (KRAS G12D); details: pERK1/2, 2 days, read-out: PANC-1 (KRAS G12D) IC50
T2 construct: pERK1/2 HTRF read-out
T2 sequence (P01116 1-188 isoform P01116-2 G12D): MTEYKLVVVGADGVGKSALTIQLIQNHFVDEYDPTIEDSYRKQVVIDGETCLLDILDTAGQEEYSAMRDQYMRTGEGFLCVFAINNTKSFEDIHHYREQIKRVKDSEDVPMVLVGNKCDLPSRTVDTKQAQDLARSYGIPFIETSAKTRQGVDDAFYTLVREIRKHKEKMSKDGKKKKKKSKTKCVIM
Summary of the method: as §1

[3] = molecular target: T3, pERK1/2 (Thr202/Tyr204), NCI-1H358 (KRAS G12C) (Homo sapiens, UniProt P01116, G12C); test: Assay of intracellular pERK1/2 (Thr202/Tyr204) phosphorylation in NCI-H358 cells (KRAS G12C); details: pERK1/2, 2 days, read-out: NCI-H358 (KRAS G12C) IC50
T3 construct: pERK1/2 HTRF read-out
T3 sequence (P01116 1-188 isoform P01116-2 G12C): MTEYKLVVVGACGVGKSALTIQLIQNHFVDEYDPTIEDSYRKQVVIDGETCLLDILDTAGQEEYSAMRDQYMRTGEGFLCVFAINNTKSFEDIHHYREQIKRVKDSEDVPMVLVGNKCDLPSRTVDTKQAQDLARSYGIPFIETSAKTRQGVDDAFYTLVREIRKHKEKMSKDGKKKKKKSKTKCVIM
Summary of the method: as §1

| Compound | pIC50 [1] | pIC50 [2] | pIC50 [3] |
| --- | --- | --- | --- |
| Cc1cc(N)cc(-c2nc3c4c(nc(OC[C@@H]5CCCN5C)nc4c2F)N(C(C)c2cccnc2N)CCO3)c1C(F)(F)F (stereo partly drawn) [Compound 65] | 8.70 | 7.59 | 9.00 |
| CC(c1cccnc1N)N1c2nc(OC[C@@]34CCCN3C[C@H](F)C4)nc3c(F)c(-n4nc(N)c5ccccc54)nc(c23)OC[C@@H]1C (stereo partly drawn) [Compound 336, (*)1-((9S)-10-(1-(2-aminopyridin-3-yl)ethyl)-4-fluoro-2-(((2R,7aS)-2-fluorotetrahydro-1H-pyrrolizin-7a(5H)-yl)methoxy)-9-methyl-9,10-dihydro-8H-7-oxa-1,3,6,10-tetraazacyclohepta[de]naphthalen-5-yl)-1H-indazol-3-amine] | < 7.00 | < 7.00 | < 7.00 |
| Cc1c(F)c(N)cc(-c2nc3c4c(nc(OC[C@@]56CCCN5C[C@]5(CC5(F)F)C6)nc4c2F)N(C(C)c2cccnc2N)CCO3)c1C(F)(F)F (single isomer, unassigned; diastereomer 2) [Compound 239, (*)3-(1-(5-(5-amino-4-fluoro-3-methyl-2-(trifluoromethyl)phenyl)-2-(((1R or 1S,7a′S)-2,2-difluorodihydro-1′H,3′H-spiro[cyclopropane-1,2′-pyrrolizin]-7a′(5′H)-yl)methoxy)-4-fluoro-8,9-dihydro-10H-7-oxa-1,3,6,10-tetraazacyclohepta[de]naphthalen-10-yl)ethyl)pyridin-2-amine (diastereomer 2)] | 9.40 | 8.70 | 9.52 |
| Cc1c(F)c(N)cc(-c2nc3c4c(nc(OC[C@@]56CCCN5C[C@H](F)C6)nc4c2F)N([C@H](C)c2cc(F)cnc2N)[C@@H](C)CO3)c1C(F)(F)F [Compound 365] | 9.00 | 9.00 | 9.70 |
| Cc1cc(N)nc(-c2nc3c4c(nc(OC[C@@]56CCCN5C[C@H](F)C6)nc4c2F)N(C(C)c2cccnc2N)[C@@H](C)CO3)c1C(F)(F)F (stereo partly drawn) [Compound 326, (*)6-((9S)-10-(1-(2-aminopyridin-3-yl)ethyl)-4-fluoro-2-(((2R,7aS)-2-fluorotetrahydro-1H-pyrrolizin-7a(5H)-yl)methoxy)-9-methyl-9,10-dihydro-8H-7-oxa-1,3,6,10-tetraazacyclohepta[de]naphthalen-5-yl)-4-methyl-5-(trifluoromethyl)pyridin-2-amine] | 8.52 | 8.52 | 9.00 |
| Cc1c(F)c(N)cc(-c2nc3c4c(nc(OC[C@@]56CCCN5C[C@H](F)C6)nc4c2F)N(C(C)c2cccnc2N)CCO3)c1C(F)(F)F (single isomer, unassigned) [Compound 138, 3-((R or S)-1-(5-(5-amino-4-fluoro-3-methyl-2-(trifluoromethyl)phenyl)-4-fluoro-2-(((2R,7aS)-2-fluorotetrahydro-1H-pyrrolizin-7a(5H)-yl)methoxy)-8,9-dihydro-10H-7-oxa-1,3,6,10-tetraazacyclohepta[de]naphthalen-10-yl)ethyl)pyridin-2-amine] | 7.77 | 7.52 | 7.89 |
| CC(c1cccnc1N)N1c2nc(OC[C@@H]3C[C@@H](F)CN3C)nc3c(F)c(-c4cc(N)cc(Cl)c4C(F)(F)F)nc(c23)OC[C@@H]1C (single isomer, unassigned) [Compound 287, 3-((R or S)-1-((S)-5-(5-amino-3-chloro-2-(trifluoromethyl)phenyl)-4-fluoro-2-(((2S,4R)-4-fluoro-1-methylpyrrolidin-2-yl)methoxy)-9-methyl-8,9-dihydro-10H-7-oxa-1,3,6,10-tetraazacyclohepta[de]naphthalen-10-yl)ethyl)pyridin-2-amine] | 9.40 | 8.70 | 9.70 |
| Cc1cc(N)cc(-c2nc3c4c(nc(OC[C@@]56CCCN5CC5(CC5(F)F)C6)nc4c2F)N(C(C)c2cccnc2N)CCO3)c1C(F)(F)F (stereo partly drawn) [Compound 237] | 9.40 | 9.00 | 9.52 |
| CC(c1cccnc1N)N1CCOc2nc(-c3cc(N)ccc3C(F)(F)F)c(F)c3nc(OC[C@@]45CCCN4C[C@H](F)C5)nc1c23 (single isomer, unassigned) [Compound 53, 3-((R or S)-1-(5-(5-amino-2-(trifluoromethyl)phenyl)-4-fluoro-2-(((2R,7aS)-2-fluorotetrahydro-1H-pyrrolizin-7a(5H)-yl)methoxy)-8,9-dihydro-10H-7-oxa-1,3,6,10-tetraazacyclohepta[de]naphthalen-10-yl)ethyl)pyridin-2-amine] | 6.72 | < 6.00 | 7.06 |
| Cc1cc(N)cc(-c2nc3c4c(nc(OC[C@@]56CCCN5C[C@H](F)C6)nc4c2F)N(C(C)c2cccnc2N)[C@@H](C)CO3)c1C(F)(F)F (stereo partly drawn) [Compound 262] | 7.33 | 7.40 | 7.55 |
| CC(c1cccnc1N)N1CCOc2nc(-c3cc(N)cc(Cl)c3C3CC3)c(F)c3nc(OCC4(C#N)CC4)nc1c23 (stereo not drawn) [Compound 68] | 6.30 | < 6.00 | 6.58 |
| [2H]C1([2H])CC[C@@]2(C([2H])([2H])Oc3nc4c5c(nc(-c6cc(N)c(F)c(C)c6C(F)(F)F)c(F)c5n3)OCCN4C(C)c3cccnc3N)C[C@@]([2H])(F)CN12 (single isomer, unassigned; diastereomer 1) [Compound 178, (*)3-(1-(5-(5-amino-4-fluoro-3-methyl-2-(trifluoromethyl)phenyl)-4-fluoro-2-(((2R or 2S,7aS)-2-fluorotetrahydro-1H-pyrrolizin-7a(5H)-yl-2,5,5-d3)methoxy-d2)-8,9-dihydro-10H-7-oxa-1,3,6,10-tetraazacyclohepta[de]naphthalen-10-yl)ethyl)pyridin-2-amine (diastereomer 1)] | 9.40 | 9.00 | 10.00 |
| CC(c1cccnc1N)N1CCOc2nc(-c3cc(O)cc(Cl)c3C3CC3)c(F)c3nc(OC[C@@H]4COCCN4C)nc1c23 (stereo partly drawn) [Compound 134] | 7.47 | < 7.00 | 7.51 |
| Cc1n[nH]c2cc3ccccc3c(-c3nc4c5c(nc(OC[C@@]67CCCN6C[C@H](F)C7)nc5c3F)N(C(C)c3cccnc3N)[C@@H](C)CO4)c12 (stereo partly drawn) [Compound 401] | 9.40 | 9.52 | 9.52 |
| C[C@@H](c1cccnc1N)N1c2nc(OC[C@@]34CCCN3C[C@H](F)C4)nc3c(F)c(-c4c5ccccc5cc5[nH]ncc45)nc(c23)O[C@@H]2CCC[C@@H]21 [Compound 400] | < 6.00 | 6.08 | 6.17 |
| Cc1c(C(F)(F)F)c(-c2nc3c4c(nc(OC[C@@]56CCCN5C[C@H](F)C6)nc4c2F)N(C(C)c2cccnc2N)[C@@H](C)CO3)c2cn[nH]c2c1F (stereo partly drawn) [Compound 363] | 9.52 | 9.52 | 9.70 |
| Cc1nc(N)cc(-c2nc3c4c(nc(OC[C@@]56CCCN5C[C@H](F)C6)nc4c2F)N(C(C)c2cccnc2N)CCO3)c1C(F)(F)F (stereo partly drawn) [Compound 83] | 8.52 | 7.54 | 9.22 |
| [2H]C1([2H])Oc2nc(-c3cc(N)c(F)c(Cl)c3C(F)(F)F)c(F)c3nc(OC[C@@H]4C[C@@H](F)CN4C)nc(c23)N(C(C)c2cccnc2N)C1([2H])[2H] (single isomer, unassigned) [Compound 209, 3-((R or S)-1-(5-(5-amino-3-chloro-4-fluoro-2-(trifluoromethyl)phenyl)-4-fluoro-2-(((2S,4R)-4-fluoro-1-methylpyrrolidin-2-yl)methoxy)-8,9-dihydro-10H-7-oxa-1,3,6,10-tetraazacyclohepta[de]naphthalen-10-yl-8,8,9,9-d4)ethyl)pyridin-2-amine] | 7.35 | < 7.00 | 7.89 |
| CC(c1cccnc1N)N1c2nc(OC[C@@]34CCCN3C[C@H](F)C4)nc3c(F)c(-c4cc(N)cc(Cl)c4)nc(c23)OC[C@@H]1C (stereo partly drawn) [Compound 306] | 7.40 | 7.03 | 7.80 |
| [2H]C1([2H])CC[C@@]2(COc3nc4c5c(nc(-c6cc(N)c(F)c(Cl)c6C(F)(F)F)c(F)c5n3)OC([2H])([2H])C([2H])([2H])N4[C@H](C)c3cccnc3N)C[C@@H](F)CN12 (single isomer, unassigned) [Compound 222, 3-((R or S)-1-(5-(5-amino-3-chloro-4-fluoro-2-(trifluoromethyl)phenyl)-4-fluoro-2-(((2R,7aS)-2-fluorotetrahydro-1H-pyrrolizin-7a(5H)-yl-5,5-d2)methoxy)-8,9-dihydro-10H-7-oxa-1,3,6,10-tetraazacyclohepta[de]naphthalen-10-yl-8,8,9,9-d4)ethyl)pyridin-2-amine] | 9.40 | 8.70 | 10.00 |
| CC(c1cccnc1N)N1CCOc2nc(-c3cc(N)cc(Cl)c3C(F)(F)F)c(F)c3nc(OC[C@@]45CCCN4C[C@H](F)C5)nc1c23 (stereo partly drawn) [Compound 63] | 9.30 | 8.70 | 9.40 |
| Cc1cc(N)cc(-c2nc3c4c(nc(OC[C@H]5CCCN5C)nc4c2F)N(C(C)c2cccnc2N)CCO3)c1C(F)(F)F (single isomer, unassigned) [Compound 110, 3-((R or S)-1-(5-(5-amino-3-methyl-2-(trifluoromethyl)phenyl)-4-fluoro-2-(((R)-1-methylpyrrolidin-2-yl)methoxy)-8,9-dihydro-10H-7-oxa-1,3,6,10-tetraazacyclohepta[de]naphthalen-10-yl)ethyl)pyridin-2-amine] | < 7.00 | < 7.00 | < 7.00 |
| Cc1cc(N)cc(-c2nc3c4c(nc(OC[C@@]56CCCN5C[C@H](F)C6)nc4c2F)N(C(C)c2cccnc2N)CCO3)c1C1CC1 (stereo partly drawn) [Compound 146] | 8.52 | 7.80 | 9.10 |
